Laboratory results published in patent US20160176924A1, “MODIFIED PEPTIDES AS POTENT INHIBITORS OF THE PSD-95/NMDA RECEPTOR INTERACTION” (priority 2008, published 2016).
Values joined by “and” are separate entries in the source; they are usually repeats but may differ in a detail not shown here. Equal values may be shown once.

Key:
PDZ1-2 of PSD-95 = molecular target: T1, PDZ1-2 of PSD-95 (Homo sapiens, UniProt P78352, I195W); assay: Stopped-flow fluorimetry (fluorescence titration assay); assay type: binding
T1 construct: PDZ1-2 (residues 61-249) tandem; made in house; host or cells: E. coli BL21-DE3 pLysS
Description: The HIS-PDZ2 and HIS-PDZ1-2 expression constructs of PSD-95 were genetically manipulated to encode a tryptophan, (in position 51 of SEQ ID NO: 4 and position 145 in SEQ ID NO: 8, respectively) instead of isoleucine. Binding between PDZ2 and PDZ1-2 and peptide ligand 74 was then monitored and quantified, by measuring the fluorescence increase from this tryptophan upon ligand recognition. (excitation λ at 280 nm, emission λ>320 nm). Stopped-flow measurements were performed at 10° C. or 25° C. on an SX-20MV stopped-flow spectrometer (Applied Photophysics, Leatherhead, UK). The peptide, in varying amounts, was rapidly mixed with a constant amount of PDZ and the change in fluorescence was measured over time. The fluorescence versus time plots was fitted to a single or double exponential equation, from which one or two observed rate constants were obtained. Observed rate constants were then plotted against the concentration of the varied species and microscopic rate constants determined by fitting the data to the equation for a bimolecular association (Eq. 1)
kobs=((kon^2(n−[A]0)^2+koff^2+2konkoff(n+[A]0))^0.5 (Eq. 1) […]
The equilibrium dissociation constant Kd of the PDZ-peptide complex was calculated by the experimental determined kon and koff.

PDZ2 of PSD-95 = molecular target: T2, PDZ2 of PSD-95 (Homo sapiens, UniProt P78352); assay: FP heterologous competition binding assay; settings: for Ki: FP competition, mean ± SEM, NA = no activity/affinity
T2 construct: PDZ2 (residues 155-249); made in house; host or cells: E. coli BL21-DE3 pLysS
Text: (§1) Determined IC50 values may be converted to Ki values.^5 Suitable fluorophores include either 5-FAM or Cy5, which may be coupled to a tripeptide (KSG or CSG) linker attached to the N-terminus of the undecapeptide, to give 5-FAM-NR2B, Cy5-NR2B, 5-FAM-CRIPT and Cy5-CRIPT. The 5-FAM fluorophore may be attached to the undecapeptides by coupling with HATU. The Cy5 fluorophore may be conjugated to the undecapeptides by coupling Cy5-maleimide to the cysteine side chain of the tripeptide sequence CSG attached to the N-terminus of the peptide, as detailed in the Methodology section.
(§2) To measure the affinities between non-fluorescent peptides and PDZ domains, heterologous competition bindings assay were performed. This was done by adding increasing concentrations of peptide to a fixed concentration of Cy5-NR2B, 5-FAM-NR2B, Cy5-CRIPT or 5-FAM-CRIPT (50 nM) and PDZ (20 μM for PDZ1, 3 μM for PDZ2 and 1-2 and 5 μM for PDZ3) in the same TBS buffer and conditions as described above. FP values were then fitted to the general equation: Y=Bottom+(Top−Bottom)/[1[…](10̂^X-logIC50)], where X is the logarithmic value of peptide concentration. Hereby the IC50 value was obtained, which is used to calculate the theoretical competitive inhibition constant, Ki.^5
(§3) A convenient and reliable way to examine interactions between peptide analogues and PDZ domains is by using a fluorescence polarization (FP) assay. The three PDZ domains, PDZ1-3, of PSD-95 were expressed individually as set out above, while PDZ1-2 was also expressed as a tandem construct. […] IC50 values were then converted to Ki values.^5

PDZ1 of PSD-95 = molecular target: T3, PDZ1 of PSD-95 (Homo sapiens, UniProt P78352); assay: FP heterologous competition binding assay; settings: for Ki: FP competition, mean ± SEM, NA = no activity/affinity
T3 construct: PSD-95 PDZ1 (residues 61-151); made in house; host or cells: E. coli BL21-DE3 pLysS
Text: as §1, §2, §3

PDZ1-2 tandem of PSD-95 = molecular target: T4, PDZ1-2 tandem of PSD-95 (Homo sapiens, UniProt P78352); assay: FP heterologous competition binding assay; settings: mean ± SEM
T4 construct: PDZ1-2 (residues 61-249) tandem; made in house; host or cells: E. coli BL21-DE3 pLysS
Text: as §1, §2, §3

[1] = system: cultured cortical neurons; assay: Neuronal NMDA excitotoxicity assay (LDH release); assay type: cell-based, rat; settings: 500 nM
Text: When cultured cortical neurons are exposed to high concentrations of NMDA, an excitoxic cascade is initiated, which leads to cellular damage and ultimately neuronal cell death. Consequently, the cell membranes are destroyed, and cytoplasmic enzymes are released into the cell surroundings. The extent of this neuronal cell death can be quantified by measuring the release of cytoplasmic lactate dehydrogenase (LDH) enzyme into the cell medium. The compounds of interest and control compound (3) are investigated with respect to their abilities to attenuate NMDA-mediated toxicity. Compounds that are active in this assay are both membrane permeable, and can prevent ex vivo excitotoxicity, which are important properties for therapeutics towards excitotoxicity mediated diseases.
Cortical neurons were surgically removed from rats (e.g. E21) and then cultured for 7-9 days in vitro in Neurobasal A medium with B-27 supplement (each supplied by Invitrogen), further supplemented with 1 mM glutamine, 50 units/ml penicillin, and 50 μg/ml streptomycin. The following steps were then performed:
1. Samples of the cultured cortical neurons were removed from the Neurobasal-A based culture medium, at various time points prior to exposure to compound, and placed into “transfection medium” ([…]; as defined by Bading et al (1993) Science 260, 181-186) comprising: 10% modified Minimum Essential Medium (supplied by Invitrogen; product no: 21090022; containing Earles salt, but no L-glutamine), 90% Salt-Glucose-Glycine (SGG) medium: (114 mM NaCl, 0.219% NaHCO3, 5.292 mM KCL, 1 mM MgCl2, 2 mM CaCl2, 10 mM HEPES, 1 mM Glycine, 30 mM glucose, 0.5 mM sodium pyruvate, 0.1% Phenol Red), insulin-transferrin-selenite supplement (supplied by Sigma: 7.5 μg insulin/ml, 7.5 μg transferring/ml and 7.5 ng sodium selenite/ml); with a final osmolarity of 325 mosm/l. All subsequent steps were performed in this TM medium. 2. Samples of neurons are exposed to an NMDAR/PSD-95 inhibitor of the invention (compounds 40, 52-90) at a final concentration of between 0.05-50 μM for a period of between 0.5 to 1.5 hours. […] 3. Each sample of neurons was washed at least one time in TM medium to remove the NMDAR/PSD-95 inhibitor, and placed in TM medium. 4. After various periods of time, the samples of neurons were exposed to NMDA at a concentration of between 10-100 μM for a period of 0.5 to 1.5 hours, preferably 1 hour, after which the samples were again placed in TM medium for 24 hours. 5. LDH in the cell medium was quantified using commercial available kits (e.g. Promega Biotech AB, cat no G1780).

[2] = Human blood plasma stability assay; assay type: in vitro ADME
Description: In this assay, the half-life (T1/2) of a compound in blood plasma is measured in vitro, whereby its susceptibility to degradation by proteases, peptidases and general plasma contents is quantified.
Compounds of interest were dissolved in human blood plasma (270 μl; 3H Biomedical, Sweden, cat no 1300-1-P50) to a concentration of 0.25 mM (30 μL of 2.5 mM) and incubated at 37° C. Aliquots (30 μl) were removed at various time intervals (0, 5, 10, 20, 40, 80, 160, 320, 960, 1280, 2550, 4560 and 7240 min) and quenched with 60 μL trichloroacetic acid (aq., 5%). The aliquots were vortexed, and incubated for at least 15 min, at 4° C. prior to centrifugation at 18,000 g for 2 min and the supernatant was analyzed by RP-HPLC to quantify the remaining compound (absorbance at 218 nm).

PSD-95's PDZ2 domain = molecular target: T5, PSD-95's PDZ2 domain (Homo sapiens, UniProt P78352); assay: Polyhistidine pull-down assay; assay type: binding; settings: 200 μM
T5 construct: PDZ2 (residues 155-249); His-tag (thrombin-cleavable) (cleaved yes); made in house; host or cells: E. coli (as for the other PDZ constructs)
Description: The polyhistidine pull-down is an in vitro technique that consists of a polyhistidine-tagged bait NRB2 or CRIPT protein C-terminal domain (e.g NR2B WT peptide with the sequence [sequence]) that can be used to identify competitors of a PDZ domain-binding partner (PDZ domain of PSD-95) (the prey). The bait protein is immobilized on cobalt chelated affinity gel. The bait serves as the secondary affinity support for the protein partner to the bait and for identifying competitors that can displace the prey from the bait. The competitors are peptide analogues, specifically an NMDAR/PSD-95 inhibitor of the present invention. PPIs, between the prey and bait are analyzed by chemically dissociating/eluting the bound prey (PDZ domain or peptide analogue) and visualizing the prey by SDS-PAGE and associated detection methods depending on the sensitivity requirements of the interacting proteins. These methods include Coomassie® Dye, silver, and zinc staining; western blotting; and [^35S] radioisotopic detection. Alternatively, the displaced prey detected on the gel, can be isolated from a polyacrylamide gel, and further analyzed. […]
As bait, a polyhistidine NR2B WT peptide with the sequence [sequence] was synthesized. […] Eluted PDZ2 was analyzed by SDS-PAGE and silver staining.

PDZ3 of PSD-95 = molecular target: T6, PDZ3 of PSD-95 (Homo sapiens, UniProt P78352); assay: FP heterologous competition binding assay; settings: FP competition; mean ± SEM; NA = no activity/affinity
T6 construct: PDZ3 (residues 309-401); made in house; host or cells: E. coli BL21-DE3 pLysS
Text: as §1, §2, §3

inhibition of PDZ2 binding to NR2B WT bait in pull-down, in words (PSD-95's PDZ2 domain)	fold increase in Ki (loss of affinity) compared to NR2B peptide (1), PDZ2 (PDZ2 of PSD-95)	Compound	Ki (PDZ1-2 of PSD-95)	Ki (PDZ2 of PSD-95)	Ki (PDZ1 of PSD-95)	Ki (PDZ1-2 tandem of PSD-95)	effect on NMDA-mediated excitotoxicity, in words [1]	degradation in human blood plasma, in words [2]	half-life at […] ([2]; human, plasma, Blood plasma half life (T1/2))	Ki (PDZ3 of PSD-95)	fold increase in affinity compared to NR2B peptide (1), PDZ2 (PDZ2 of PSD-95)	selectivity towards PDZ2 relatively to PDZ3 (PDZ2 of PSD-95)	fold increase in affinity (more potent) compared to NR2B peptide (1), PDZ1 (PDZ1 of PSD-95)	selectivity towards PDZ1 relatively to PDZ3 (PDZ1 of PSD-95)
–	–	CC[C@H](C)[C@H](NC(=O)CCOCCOCCOCCOCCOCCOCCOCCOCCOCCOCCOCCOCCOCCC(=O)N[C@H](C(=O)N[C@@H](CCC(=O)O)C(=O)N[C@@H](CO)C(=O)N[C@@H](CC(=O)O)C(=O)N[C@H](C(=O)O)C(C)C)[C@@H](C)CC)C(=O)N[C@@H](CCC(=O)O)C(=O)N[C@@H](CO)C(=O)N[C@@H](CC(=O)O)C(=O)N[C@H](C(=O)O)C(C)C [(IESDV)2PEG12 (74), (IESDV)2PEG12]	~0.1 µM	3.1 ± 0.13 µM	22 ± 1.4 µM	~0.1 µM	inhibit neuronal excitotoxicity, as efficiently as the clinical candidate Tat-N2B (3)	no significant degradation could be detected over a time period of 6 days	> 133 h	–	–	–	–	–
–	–	CC(C)[C@H](NC(=O)[C@H](C)NC(=O)[C@@H](NC(=O)[C@H](C)NCCC1CCCCC1)[C@@H](C)O)C(=O)O [ATAV (73)]	–	–	8.9 ± 1 µM	–	inhibit neuronal excitotoxicity, as efficiently as the clinical candidate Tat-N2B (3)	–	–	–	–	–	–	–
very effective inhibitor	2 fold	CN[C@@H](CCC(=O)O)C(=O)N[C@H](C(=O)N[C@@H](C)C(=O)N[C@H](C(=O)O)C(C)C)C(C)O (stereo partly shown) [Compound 40, N-Methyl-ETAV]	–	8.9 ± 0.5 µM	11 ± 0.47 µM	–	–	–	–	78 ± 1.5 µM	–	–	–	–
–	–	CC(C)[C@H](NC(=O)[C@H](C)NC(=O)[C@@H](NC(=O)[C@H](CCC(=O)O)NCCC1CCCCC1)C(C)O)C(=O)O (stereo partly shown) [Compound 56, N-Cyclohexylethyl-ETAV]	–	0.45 ± 0.13 µM	1 µM and 0.94 µM	–	inhibit neuronal excitotoxicity, as efficiently as the clinical candidate Tat-N2B (3)	–	–	11 ± 0.43 µM	9 fold	20 fold	ca. 19 fold	10 fold
–	–	CC(C)[C@H](NC(=O)[C@H](C)NC(=O)[C@@H](NC(=O)[C@H](CCC(=O)O)NCCc1ccc2ccccc2c1)C(C)O)C(=O)O (stereo partly shown) [Compound 63, N-(Naphtalene-2-yl)ethyl-ETAV]	–	–	1 ± 0.33 µM	–	inhibit neuronal excitotoxicity, as efficiently as the clinical candidate Tat-N2B (3)	–	–	10 ± 0.22 µM	–	–	–	–
